Test results from paper PMC6336783, “Crystal structure of the multidrug resistance regulator RamR complexed with bile acids” (Scientific Reports, 2019).

T1: RamR (Salmonella typhimurium, UniProt Q8ZR43)
T1 construct: made in house
T1 sequence (Q8ZR43 1-193): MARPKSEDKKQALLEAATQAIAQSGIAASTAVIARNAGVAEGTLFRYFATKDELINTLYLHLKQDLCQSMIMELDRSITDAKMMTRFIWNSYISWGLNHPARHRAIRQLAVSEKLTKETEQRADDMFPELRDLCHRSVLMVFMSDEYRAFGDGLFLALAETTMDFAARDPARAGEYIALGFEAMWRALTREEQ


Experiments:
[1] = target: interaction between RamR and PramA (Salmonella typhimurium, UniProt Q8ZR43); assay: SPR inhibition of RamR binding to the 100-bp DNA fragment with the RamR-binding site; settings: for inhibition at 500 µM: read-out: inhibition of the interaction between RamR and the DNA fragment
[2] = tested on: ramA mRNA levels in wild-type S. Typhimurium strain; assay type: cell-based, Salmonella enterica serovar Typhimurium; settings: LB broth with 5 mM bile acid, qRT-PCR
Experimental: (§1) The bacterial strains and the plasmids used in this study are listed in Supplementary Table 3. The S. enterica serovar Typhimurium strains were the wild-type strain ATCC14028s[21] and its ∆ramR mutant (which was produced as described previously)[22]. Bacterial strains were grown at 37 °C in Luria–Bertani broth supplemented, when appropriate, with ampicillin (100 µg/ml), kanamycin (25 µg/ml) or chloramphenicol (25 µg/ml).
(§2) Bacteria were grown until mid-log phase (OD600 of 0.6) and harvested by centrifugation. Pelleted cells were stabilized with RNAprotect Bacteria Reagent (Qiagen) and stored at −80 °C until needed. Total RNA was extracted using an RNeasy Mini kit (Qiagen). Removal of residual genomic DNA was performed using a Turbo DNA-free kit (Ambion) and checked by negative PCR amplification of the chromosomal sequence. RNA integrity was verified by electrophoresis on a 1% agarose gel. Total RNA (1.5 µg) was reverse-transcribed using random hexamers and the Superscript III First Strand Synthesis System (Applied Biosystems). The expression level of each gene of interest was calculated as the average of the results from three independent cDNA samples. For each cDNA sample and each gene, qRT-PCR runs were performed in duplicated wells and the primers used for qRT-PCR are listed in Supplementary Table 4. The cycling conditions were: 95 °C for 5 min followed by 40 cycles of 95 °C for 10 s and then 60 °C for 15 s. After each run, amplification specificity and the absence of primer dimers were verified using a dissociation curve, acquired by heating the PCR products from 60 °C to 95 °C. The relative quantities of transcripts were determined using a standard curve and normalized against the geometric mean of three reference genes (gmk, gyrB and rrs).

[3] = tested on: ramA mRNA levels in ∆ramR Salmonella strain; assay type: cell-based, Salmonella enterica serovar Typhimurium; settings: LB broth with 5 mM bile acid, qRT-PCR
Experimental: as §1, §2

[4] = target: T1, RamR; assay: SPR binding of bile acids to immobilized RamR; parameters: species or system Salmonella enterica serovar Typhimurium
Experimental: Because cholic and chenodeoxycholic acids induce ramA in a RamR-dependent manner, we hypothesized that these compounds are recognized by RamR. To test the possibility that cholic and chenodeoxycholic acids may bind to RamR, we employed surface plasmon resonance (SPR) analysis using a Biacore T200 instrument (GE Healthcare).
Dissociation was also recorded for 2 min.

[5] = target: the molecule itself; assay: crystal structure; co-crystals of RamR with a 5-fold molar excess of cholic or chenodeoxycholic acid; hanging drops, vapor diffusion, 25 °C; 20 mM sodium phosphate (pH 6.6), 75 mM NaCl, 2 mM DTT

Row | Molecule | IC50 [1] [µM] | inhibition at 500 µM [1] [%] | fold difference in ramA mRNA levels relative to the control in the same strain [2] [fold] | fold difference in ramA mRNA levels relative to the control in the same strain [3] [fold] | Kd [4] [µM] | binding result [5]
1 | C[C@H](CCC(=O)O)[C@H]1CC[C@H]2[C@@H]3CC[C@@H]4C[C@H](O)CC[C@]4(C)[C@H]3C[C@H](O)[C@]12C [deoxycholic acid, 3α, 12αdihydroxy-5β-cholan-24-oic acid] | 318 | ~50 | 1.7 | 2.7 | – | –
2 | C[C@H](CCC(=O)O)[C@H]1CC[C@H]2[C@@H]3[C@H](O)C[C@@H]4C[C@H](O)CC[C@]4(C)[C@H]3C[C@H](O)[C@]12C [cholic acid, 3α, 7α, 12α-trihydroxy-5β-cholan-24-oic acid] | 33 | ≥ 90 | – | 1.6 | 60.5 | –
3 | C[C@H](CCC(=O)O)[C@H]1CC[C@H]2[C@@H]3[C@H](O)C[C@@H]4C[C@H](O)CC[C@]4(C)[C@H]3CC[C@]12C [chenodeoxycholic acid, 3α, 7α-dihydroxy-5β-cholan-24-oic acid] | 19.2 | ≥ 90 | – | 0.8 | 65.3 | –
4 | RamR (natural protein, Salmonella enterica serovar Typhimurium, RamR, TetR-family transcriptional repressor of ramA, Salmonella enterica serovar Typhimurium; ligand-free structure PDB 3VVX; also called multidrug resistance regulator RamR; local transcriptional repressor RamR) ARPKSEDKKQALLEAATQAIAQSGIAASTAVIARNAGVAEGTLFRYFATKDELINTLYLHLKQDLCQSMIMELDRSITDAKMMTRFIWNSYISWGLNHPARHRAIRQLAVSEKLTKETEQRADDMFPELRDLCHRSVLMVFMSDEYRAFGDGLFLALAETTMDFAARDPARAGEYIALGFEAMWRALTREEQ | – | – | – | – | – | binds
